In patent US9884063B2, “Amido-substituted azole compounds” (Bayer Pharma Aktiengesellschaft, priority 2014, dated 2018):

These compounds were tested on HEK293 FOP control reporter cell line (assay: HEK293 FOP Assay (FOP control vector luciferase reporter)). Conditions: Homo sapiens; HEK293 FOP control reporter cell line, 16 hours incubation, compound dilution series 50 μM to 15 nM.
Assay type: cell-based
Outline: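 Compound series 50 μM to 15 nM, 3.16-fold steps, were diluted in CAFTY buffer (pH 7.4, 2 mM Ca2+, 0.01% BSA) and tested alongside the TOP reporter line. Human Wnt-3a was added at 2500–5 ng/ml in two-fold steps. The control HEK293 line stably holds an FOP vector whose TCF elements are randomized and non-functional.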

Compound	IC50 [µM]
O=C(NCCN1CCCCC1)c1nc[nH]c1C(=O)Nc1ccc(NC(=O)c2c(F)cc(F)cc2Cl)cc1 [Example 119, N^5-{4-[(2-chloro-4,6-difluorobenzoyl)amino]phenyl}-N^4-[2-(piperidin-1-yl)ethyl]-1H-imidazole-4,5-dicarboxamide]	20
CNC(=O)c1nc[nH]c1C(=O)Nc1ccc(NC(=O)c2cc(OCCN3CCCCC3)ccc2Cl)cc1 [Example 125, N^5-[4-({2-chloro-5-[2-(piperidin-1-yl)ethoxy]benzoyl}amino)phenyl]-N^4-methyl-1H-imidazole-4,5-dicarboxamide]	15
CC1CCN(CCNC(=O)c2nc[nH]c2C(=O)Nc2ccc(NC(=O)c3ccc(F)cc3Cl)cc2)CC1 [Example 126, N^5-{4-[(2-chloro-4-fluorobenzoyl)amino]phenyl}-N^4-[2-(4-methylpiperidin-1-yl)ethyl]-1H-imidazole-4,5-dicarboxamide]	27
CC(C)CNC(=O)c1[nH]cnc1C(=O)Nc1ccc(NC(=O)c2ccc(F)cc2Cl)cc1 [Example 147, N^4-{4-[(2-chloro-4-fluorobenzoyl)amino]phenyl}-N^5-isobutyl-1H-imidazole-4,5-dicarboxamide]	6
CC(C)(C)CNC(=O)c1[nH]cnc1C(=O)Nc1ccc(NC(=O)c2ccccc2Cl)cc1 [Example 148, N^4-{4-[(2-chlorobenzoyl)amino]phenyl}-N^5-(2,2-dimethylpropyl)-1H-imidazole-4,5-dicarboxamide]	16
CC(C)(CNC(=O)c1[nH]cnc1C(=O)Nc1ccc(NC(=O)c2ccccc2Cl)cc1)N1CCCCC1 [Example 165, N^4-{4-[(2-chlorobenzoyl)amino]phenyl}-N^5-[2-methyl-2-(piperidin-1-yl)propyl]-1H-imidazole-4,5-dicarboxamide]	31
CC(C)(CN1CCCCC1)NC(=O)c1[nH]cnc1C(=O)Nc1ccc(NC(=O)c2ccccc2Cl)cc1 [Example 171, N^4-{4-[(2-chlorobenzoyl)amino]phenyl}-N^5-[2-methyl-1-(piperidin-1-yl)propan-2-yl]-1H-imidazole-4,5-dicarboxamide]	6.5
CC(C)(CN1CCOCC1)NC(=O)c1[nH]cnc1C(=O)Nc1ccc(NC(=O)c2ccc(F)cc2)cc1 [Example 180, N^4-{4-[(4-fluorobenzoyl)amino]phenyl}-N^5-[2-methyl-1-(morpholin-4-yl)propan-2-yl]-1H-imidazole-4,5-dicarboxamide]	37
CN1CCN(C(C)(C)CNC(=O)c2[nH]cnc2C(=O)Nc2ccc(NC(=O)c3ccc(F)cc3Cl)cc2)CC1 [Example 187, N^4-{4-[(2-chloro-4-fluorobenzoyl)amino]phenyl}-N^5-[2-methyl-2-(4-methylpiperazin-1-yl)propyl]-1H-imidazole-4,5-dicarboxamide]	28
O=C(Nc1ccc(NC(=O)c2nc[nH]c2C(=O)NCCCCN2CCCCC2)cc1)c1ccccc1Cl [Example 189, N^4-{4-[(2-chlorobenzoyl)amino]phenyl}-N^5-[4-(piperidin-1-yl)butyl]-1H-imidazole-4,5-dicarboxamide]	28
O=C(Nc1ccc(NC(=O)c2nc[nH]c2C(=O)NCCCN2CCOCC2)cc1)c1ccccc1Cl [Example 200, N^4-{4-[(2-chlorobenzoyl)amino]phenyl}-N^5-[3-(morpholin-4-yl)propyl]-1H-imidazole-4,5-dicarboxamide]	20
CC1CCCN(CCNC(=O)c2[nH]cnc2C(=O)Nc2ccc(NC(=O)c3ccc(F)cc3Cl)cc2)C1 (stereo not drawn) [Example 208, N^4-{4-[(2-chloro-4-fluorobenzoyl)amino]phenyl}-N^5-[2-(3-methylpiperidin-1-yl)ethyl]-1H-imidazole-4,5-dicarboxamide]	23
CC(C)(CNC(=O)c1[nH]cnc1C(=O)Nc1ccc(NC(=O)c2ccc(F)cc2)cc1)N1CCCCC1 [Example 209, N^4-{4-[(4-fluorobenzoyl)amino]phenyl}-N^5-[2-methyl-2-(piperidin-1-yl)propyl]-1H-imidazole-4,5-dicarboxamide]	22
O=C(Nc1ccc(NC(=O)c2nc[nH]c2C(=O)NCCN2CCCCC2)cc1)c1ccc(F)cc1Br [Example 216, N^4-{4-[(2-bromo-4-fluorobenzoyl)amino]phenyl}-N^5-[2-(piperidin-1-yl)ethyl]-1H-imidazole-4,5-dicarboxamide]	11
O=C(Nc1ccc(NC(=O)c2ocnc2C(=O)NCCN2CCC(F)(F)CC2)cc1)c1ccc(F)cc1Cl [Example 218, N^5-{4-[(2-chloro-4-fluorobenzoyl)amino]phenyl}-N^4-[2-(4,4-difluoropiperidin-1-yl)ethyl]-1,3-oxazole-4,5-dicarboxamide]	31.5
O=C(Nc1ccc(NC(=O)c2nc[nH]c2C(=O)NC2CCOC2)cc1)c1ccc(F)cc1Cl (stereo not drawn) [Example 236, N^4-{4-[(2-chloro-4-fluorobenzoyl)amino]phenyl}-N^5-(tetrahydrofuran-3-yl)-1H-imidazole-4,5-dicarboxamide]	34
CNC(=O)c1nc[nH]c1C(=O)Nc1ccc(NC(=O)c2ncccc2Cl)cc1 [Example 247, N^5-(4-{[(3-chloropyridin-2-yl)carbonyl]amino}phenyl)-N^4-methyl-1H-imidazole-4,5-dicarboxamide]	35
CCNC(=O)c1nc[nH]c1C(=O)Nc1ccc(NC(=O)c2ccc(OCC)cc2Cl)cc1 [Example 259, N^5-{4-[(2-chloro-4-ethoxybenzoyl)amino]phenyl}-N^4-ethyl-1H-imidazole-4,5-dicarboxamide]	33
